Eleven compounds from patent publication US11369644B2, “Microbial consortia” (priority 2018, dated 2022) can be followed below.

For one test, the system named is Rho. glutinis DSM 70821. Nature of the test: Disk diffusion test for antimicrobial activity (DIN 58940-3) against Rho. glutinis. It is filed as cell-based. The conditions noted are these: test strain 1 (Rho. glutinis DSM 70821); positive control 2 μg Cycloheximide/disc; 24 h at 25° C.; disk diameter = 6 mm. As for the experimental part: (§1) Generally, all samples were provided in lyophilized from. Subsets of each sample were suspended in solvent for analysis by LC/MS and GC/MS. Following these analyses, further subsets of each sample were extracted and fractionated (to enrich the medium polar range). Fractions were analyzed by LC/MS. Cell extracts were analyzed in a bioassay against Candida sp. and Rhodotorula sp. in a disk diffusion assay at 3 concentrations.
(§2) Preparative Cell Extraction. Lyophilized cells were extracted prior to fractionation/bio assay to remove cell wall debris. The cells were adjusted to a final concentration of 50 mg/mL (Table 9) and sonicated for 15 min followed by vortexing for 2 min and a second sonication step of 15 min. Afterwards, 10 mL of the suspension were transferred to another vial an centrifuged at 10,000 RCF for 5 min. The supernatant was transferred to a new vial.
(§3) Disk diffusion test. Disk diffusion tests for antimicrobial activity were prepared according to DIN 58940-3 (DIN-Taschenbuch 222, 5. Edition) using the strains 00549fBCD000864 (Rho. glutinis, test strain #1) DSM 70821 and 00539fDSM011226 (Ca. glabrata, test strain #2) DSM 11226. […]
(§4) The test strains were diluted to 1.000.000 cfu/mL using saline solution. […] After 24 h the zone of inhibition was measured and recorded in Table 10 below.
On the technique in general: Agar diffusion results depend on both activity and mobility in agar.

The next test deals with Ca. glabrata DSM 11226. Nature of the test: Disk diffusion test for antimicrobial activity (DIN 58940-3) against Ca. glabrata. The conditions noted are these: test strain 2 (Ca. glabrata DSM 11226); positive control 2 μg Cycloheximide/disc; 24 h at 25° C.; disk diameter = 6 mm. It is filed as cell-based. How it is done: as §1, §2, §3, §4
A further test relates to FP-ST38. The experiment in a line: Kirby-Bauer disk diffusion antibiotic susceptibility testing of FP-ST38. It counts as cell-based, Faecalibacterium prausnitzii. The conditions noted are these: FP-ST38 susceptible. How it is done:
Antibiotic susceptibility was determined by standard Kirby-Bauer disk diffusion testing. FP-ST38 is susceptible to the following antibiotics (cm=zone of inhibition): amoxicillin/clavulanic acid (2.5 cm), ceftriaxone (2 cm), tetracycline (5 cm), amikacin (2 cm), and bacitracin (3.4 cm).

The next test deals with F. prausnitzii ST38. Nature of the test: Antibiotic resistance by broth solution method (MIC), F. prausnitzii ST38. It counts as cell-based, Faecalibacterium prausnitzii. As for the experimental part:
(§5) Antibiotic resistance in this example was determined using the broth solution method.
(§6) Antibiotic resistance in this example was determined using the broth solution method. This procedure involved preparing two-fold dilutions of antibiotics (e.g., 1, 2, 4, 8, and 16 μg/mL) in a liquid growth medium dispensed in test tubes. The antibiotic-containing tubes were inoculated with a standardized bacterial suspension of about 1-5×10^5 CFU/mL. Following overnight incubation at 37° C., the tubes were examined for visible bacterial growth as evidenced by turbidity. The lowest concentration of antibiotic that prevented growth represented the minimal inhibitory concentration (MIC).

A further test concerns LC-ST100. Nature of the test: Kirby-Bauer disk diffusion antibiotic susceptibility testing of LC-ST100. It is filed as cell-based, Lactobacillus crispatus. The conditions noted are these: LC-ST100 susceptible. As for the experimental part: Antibiotic susceptibility was determined by standard Kirby-Bauer disk diffusion testing. LC-ST100 is susceptible to the following antibiotics (cm=zone of inhibition): azithromycin (3.5 cm), amoxicillin/clavulanic acid (5 cm), clindamycin (4 cm), vancomycin (3.8 cm), ceftriaxone (3.5 cm), tetracycline (4.2 cm), ampicillin (4 cm), bacitracin (2.5 cm).

The test system of a further test is L. crispatus ST100. Nature of the test: Antibiotic resistance by broth solution method (MIC), L. crispatus ST100. It is filed as cell-based, Lactobacillus crispatus. As for the experimental part: as §5, §6
For another test, the system named is AM-ST7. Nature of the test: Kirby-Bauer disk diffusion antibiotic susceptibility testing of AM-ST7. It is filed as cell-based, Akkermansia muciniphila. The conditions noted are these: AM-ST7 susceptible. As for the experimental part:
Antibiotic susceptibility was then determined by standard Kirby-Bauer disk diffusion testing. AM-ST7 was susceptible to the following antibiotics (cm=zone of inhibition): azithromycin (2.5 cm), amoxicillin/clavulanic acid (4 cm), vancomycin (1.5 cm), tetracycline (3 cm), bacitracin (2 cm), and levofloxacin (1.2 cm).

A further test deals with A. muciniphila ST7. The experiment in a line: Antibiotic resistance by broth solution method (MIC), A. muciniphila ST7. It is filed as cell-based, Akkermansia muciniphila. How it is done:
as §5, §6

“And” between values parts separate entries of the source, which are not always exact repeats. Equal entries are not always repeated. Positions of bridges follow the written chain, without caps; N, C: chain ends. Non-standard residues stand in square brackets, D forms with d. Residues, ends and D or L forms follow the SMILES beside them. *: point of attachment. Ileψ(thiazoline)Cys = CC[C@H](C)[C@H](N)C1=N[C@H](C(=O)*)CS1; dOrn = NCCC[C@@H](N)C(=O)O

Consider `C[C@@H]1C[C@@H]([C@H](O)CC2CC(=O)NC(=O)C2)C(=O)[C@@H](C)C1` [Cycloheximide], for which the “Diameter inhibition zone [mm] Pos. Control” value was 14 mm and 13 mm with Rho. glutinis DSM 70821; 11 mm and 10 mm and 9 mm in the test on Ca. glabrata DSM 11226.
The compound `NCC[C@H](O)C(=O)N[C@@H]1C[C@H](N)[C@@H](O[C@H]2O[C@H](CN)[C@@H](O)[C@H](O)[C@H]2O)[C@H](O)[C@H]1O[C@H]1O[C@H](CO)[C@@H](O)[C@H](N)[C@H]1O` [amikacin] gave a zone of inhibition in the test on FP-ST38 of 2 cm. Moreover, the antibiotic susceptibility result in the test with F. prausnitzii ST38 is recorded as “susceptible”.
In the test on LC-ST100, `CC1(C)S[C@@H]2[C@H](NC(=O)[C@H](N)c3ccccc3)C(=O)N2[C@H]1C(=O)O` [ampicillin] registered a zone of inhibition of 4 cm. Besides, in the test on L. crispatus ST100, the antibiotic susceptibility result is “susceptible”.
With `CC[C@H]1OC(=O)[C@H](C)[C@@H](O[C@H]2C[C@@](C)(OC)[C@@H](O)[C@H](C)O2)[C@H](C)[C@@H](O[C@@H]2O[C@H](C)C[C@H](N(C)C)[C@H]2O)[C@](C)(O)C[C@@H](C)CN(C)[C@H](C)[C@@H](O)[C@]1(C)O` [azithromycin], the zone of inhibition is listed as 2.5 cm in the test on AM-ST7 and 3.5 cm in the test with LC-ST100. The antibiotic susceptibility entry with A. muciniphila ST7, in the test on F. prausnitzii ST38 and in the test with L. crispatus ST100 was “susceptible” each time.
Consider `CC[C@H](C)[C@H](N)C1=N[C@H](C(=O)N[C@@H](CC(C)C)C(=O)N[C@H](CCC(=O)O)C(=O)N[C@H](C(=O)N[C@H]2CCCCNC(=O)[C@H](CC(N)=O)NC(=O)[C@@H](CC(=O)O)NC(=O)[C@H](Cc3cnc[nH]3)NC(=O)[C@@H](Cc3ccccc3)NC(=O)[C@H]([C@@H](C)CC)NC(=O)[C@@H](CCCN)NC2=O)[C@@H](C)CC)CS1` [bacitracin] ({Ileψ(thiazoline)Cys}-L[dE]IK[dOrn]I[dF]H[dD]N; lactam 4-C), for which the zone of inhibition stood at 2 cm in the test with AM-ST7, 3.4 cm with FP-ST38 and 2.5 cm with LC-ST100.
Turning to `CO/N=C(\C(=O)N[C@@H]1C(=O)N2C(C(=O)O)=C(CSc3nc(=O)c(=O)[nH]n3C)CS[C@H]12)c1csc(N)n1` [ceftriaxone], the zone of inhibition in the test with FP-ST38 worked out at 2 cm; in the test with LC-ST100 it was 3.5 cm.
With `CCC[C@@H]1C[C@@H](C(=O)N[C@@H]([C@H]2O[C@H](SC)[C@H](O)[C@@H](O)[C@H]2O)[C@H](C)Cl)N(C)C1` [clindamycin], the zone of inhibition in the test on LC-ST100 is listed as 4 cm.
`C[C@H]1COc2c(N3CCN(C)CC3)c(F)cc3c(=O)c(C(=O)O)cn1c23` [levofloxacin] displayed a zone of inhibition in the test on AM-ST7 of 1.2 cm.
In the case of `CN(C)[C@@H]1C(O)=C(C(N)=O)C(=O)[C@@]2(O)C(O)=C3C(=O)c4c(O)cccc4[C@@](C)(O)[C@H]3C[C@@H]12` [tetracycline], the figures for the zone of inhibition in the test with AM-ST7, with FP-ST38 and with LC-ST100 were 3 cm, 5 cm and 4.2 cm, respectively.
For the compound `CN[C@H](CC(C)C)C(=O)N[C@H]1C(=O)N[C@@H](CC(N)=O)C(=O)N[C@H]2C(=O)N[C@H]3C(=O)N[C@H](C(=O)N[C@H](C(=O)O)c4cc(O)cc(O)c4-c4cc3ccc4O)[C@H](O)c3ccc(c(Cl)c3)Oc3cc2cc(c3O[C@@H]2O[C@H](CO)[C@@H](O)[C@H](O)[C@H]2O[C@H]2C[C@](C)(N)[C@H](O)[C@H](C)O2)Oc2ccc(cc2Cl)[C@H]1O` [vancomycin], the zone of inhibition was 1.5 cm with AM-ST7 and 3.8 cm in the test with LC-ST100. Besides, the antibiotic susceptibility entry in the test on F. prausnitzii ST38 and in the test with L. crispatus ST100 was “susceptible” in each case.
amoxicillin/clavulanic acid: the zone of inhibition in the test on AM-ST7 amounted to 4 cm; in the test with FP-ST38 it was 2.5 cm; with LC-ST100, 5 cm.
